Experimental data: the supplement of paper PMC10307832

How the values were obtained:
Test in all cases: relative viability (nuclei count vs DMSO), 5 days (fraction); higher = more cells survive
[1] = compound: O[C@@H](COc1cccc2ncccc12)CN1CCN([C@@H]2c3ccccc3[C@@H]3[C@H](c4ccccc42)C3(F)F)CC1 [Zosuquidar] + N=C(N)NC(=N)NCCc1ccccc1 [Phenformin] (partner 250 µM)
Summary of the method: (§1)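 One day after seeding in 1536-well plates, lung cancer cell lines were dosed by pin tool. Dosing was either single-drug or a fixed anchor-drug dose plus five library-drug doses (not always all listed) in √10 steps. After 5 days, nuclei were stained in one fix-and-stain step and counted on 4× images, and relative viability is the nuclei count of treated wells over that of vehicle wells, given as the median of duplicate plates.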

[2] = compound: COc1cc2nccc(Oc3ccc(NC(=O)C4(C(=O)Nc5ccc(F)cc5)CC4)cc3)c2cc1OC [Cabozantinib] + Cc1nc(Nc2ncc(C(=O)Nc3c(C)cccc3Cl)s2)cc(N2CCN(CCO)CC2)n1 [Dasatinib] (partner 0.075 µM)
Summary of the method: as §1

[3] = compound: O[C@@H](COc1cccc2ncccc12)CN1CCN([C@@H]2c3ccccc3[C@@H]3[C@H](c4ccccc42)C3(F)F)CC1 [Zosuquidar] + CS(=O)(=O)CCNCc1ccc(-c2ccc3ncnc(Nc4ccc(OCc5cccc(F)c5)c(Cl)c4)c3c2)o1 [Lapatinib] (partner 2 µM)
Summary of the method: as §1

[4] = compound: C1=CC(=CC=C1NC(=S)NNC2=C(C=C(C=C2[N+](=O)[O-])C(F)(F)F)[N+](=O)[O-])F [Kobe2602] + Cc1nc(Nc2ncc(C(=O)Nc3c(C)cccc3Cl)s2)cc(N2CCN(CCO)CC2)n1 [Dasatinib] (partner 0.075 µM)
Summary of the method: as §1

Cell Line	relative viability ([1]; first compound 0.01 µM)	relative viability ([1]; first compound 0.03162 µM)	relative viability ([1]; first compound 0.1 µM)	relative viability ([1]; first compound 0.3162 µM)	relative viability ([1]; first compound 1 µM)	relative viability ([2]; first compound 0.02 µM)	relative viability ([2]; first compound 0.06325 µM)	relative viability ([2]; first compound 0.2 µM)	relative viability ([2]; first compound 0.6325 µM)	relative viability ([2]; first compound 2 µM)	relative viability ([3]; first compound 0.01 µM)	relative viability ([3]; first compound 0.03162 µM)	relative viability ([3]; first compound 0.1 µM)	relative viability ([3]; first compound 0.3162 µM)	relative viability ([3]; first compound 1 µM)	relative viability ([4]; first compound 0.2 µM)	relative viability ([4]; first compound 0.6325 µM)	relative viability ([4]; first compound 2 µM)	relative viability ([4]; first compound 6.325 µM)	relative viability ([4]; first compound 20 µM)
NCI-H1437	0.31	0.327	0.287	0.313	0.328	0.263	0.617	0.371	0.377	0.309	0.825	0.669	0.747	0.908	0.792	0.498	0.431	0.351	0.459	0.615
EKVX	0.231	0.252	0.189	0.243	0.227	0.53	0.592		0.488	0.461	0.227	0.254	0.106	0.34	0.214	0.6	0.578	0.513	0.474	0.454
NCI-H596	0.765		0.798	0.909	0.761	0.509	0.637	0.558	0.582	0.544	1.11	1.07	1.08	1.13	1.13	0.57	0.678	0.57	0.661	0.644
NCI-H1993	0.422	0.596	0.438	0.476	0.533	0.513	0.488	0.49	0.498	0.523	0.965	0.908	0.751	1.04	0.79	0.575	0.501	0.544	0.532	0.607
HCC-78	0.801	0.71		0.707	0.558		0.431	0.185	0.195	0.217	0.866	1.03		0.893	0.572	0.413	0.393	0.373	0.427	0.535
NCI-H2087	0.426		0.363	0.545	0.492	0.694	0.957	0.823	0.78	0.557	0.931	0.776	1.06	1.19	1.19	0.932	0.892	0.747	0.844	0.924
H3255	0.34	0.373	0.326	0.38	0.36	0.382	0.513		0.459	0.309	0.264	0.295	0.235	0.234	0.256	0.532	0.42	0.408	0.356	0.349
NCI-H2126	0.544	0.542		0.539	0.532	0.497	0.625	0.624	0.634	0.573	0.75	0.753	0.639	0.755	0.733	0.57	0.557	0.522	0.446	0.475
LC-2-ad	0.584	0.561	0.576	0.626	0.55		0.641	0.492	0.295	0.283	0.994	1.05	0.993	0.989	0.958	0.562	0.642	0.454	0.636	0.686
SW 1573	0.405	0.311	0.457	0.417	0.39	0.438	0.738	0.453	0.624	0.456	1.09	0.985	1.08	1.4	1.01	0.473	0.655	0.58	0.483	0.243
EBC-1											0.215	0.234	0.206	0.198	0.226					
HCC-15	0.44	0.441	0.436	0.497	0.504	0.548	0.717	0.651	0.568	0.598	0.827	0.861	0.764	0.881	0.976	0.586	0.658	0.555	0.574	0.494
NCI-H1650	0.391	0.321	0.383	0.443	0.353	0.261	0.292	0.294	0.303	0.225	0.783	0.696	0.684	1.22	0.875	0.285	0.396	0.285	0.255	0.227
COR-L 105	0.547	0.404	0.409	0.478	0.437	0.352	0.283		0.314	0.314	0.35	0.389	0.324	0.366	0.386	0.392	0.366	0.357	0.362	0.338
NCI-H650	0.464	0.42	0.379	0.482	0.448		0.504	0.452	0.49	0.445	0.845	0.879		1.49	0.881	0.429	0.564	0.501	0.517	0.5
LXF-289	0.52	0.502	0.484	0.543	0.5	0.126	0.206	0.155	0.117	0.0913	0.876	0.908	0.872	0.913	0.923	0.253	0.23	0.248	0.208	0.245
NCI-H1703											1.17	1.27	0.96	1.45	1.16					
SK-MES-1	0.661	0.622	0.644	0.607	0.637	0.335	0.518	0.293	0.432	0.242	0.448	0.401	0.445	0.495	0.517	0.368	0.489	0.4	0.415	0.305
NCI-H522	0.654	0.606	1.07	0.682	0.62	0.726	0.898	0.93	0.846	1.04						0.83	0.977	0.914	0.874	0.952
LOU-NH91	0.62	0.702		0.768	0.692	0.432	0.579		0.578	0.547	0.717	0.851	0.701	0.942	0.751	0.506	0.596	0.476	0.535	0.617

Cell Line	relative viability ([1]; first compound 0.01 µM)	relative viability ([1]; first compound 0.03162 µM)	relative viability ([1]; first compound 0.1 µM)	relative viability ([1]; first compound 0.3162 µM)	relative viability ([1]; first compound 1 µM)	relative viability ([2]; first compound 0.02 µM)	relative viability ([2]; first compound 0.06325 µM)	relative viability ([2]; first compound 0.2 µM)	relative viability ([2]; first compound 0.6325 µM)	relative viability ([2]; first compound 2 µM)	relative viability ([3]; first compound 0.01 µM)	relative viability ([3]; first compound 0.03162 µM)	relative viability ([3]; first compound 0.1 µM)	relative viability ([3]; first compound 0.3162 µM)	relative viability ([3]; first compound 1 µM)	relative viability ([4]; first compound 0.2 µM)	relative viability ([4]; first compound 0.6325 µM)	relative viability ([4]; first compound 2 µM)	relative viability ([4]; first compound 6.325 µM)	relative viability ([4]; first compound 20 µM)
NCI-H1355	0.466	0.438	0.371	0.502	0.471	0.563	0.78	0.73	0.678	0.734	0.993	1	0.759	1.11	1	0.647	0.737	0.683	0.664	0.627
NCI-H460	0.48	0.508	0.445	0.529	0.498	0.321	0.607	0.496	0.493	0.565	0.927	1	0.983	0.977	1.04	0.504	0.518	0.507	0.49	0.575
NCI-H1793	0.387	0.346		0.469	0.359	0.436	0.519	0.343	0.336	0.378	0.916	0.625		0.835	1.11	0.367	0.4	0.361	0.397	0.398
NCI-H2023	0.387	0.426	0.385	0.408	0.396	0.45	0.531	0.369	0.311	0.248	0.848	0.856	0.712	1.45	0.955	0.532	0.583	0.547	0.484	0.394
NCI-H1666	0.542	0.577	0.571	0.584	0.521	0.727	0.899	0.766	0.839	0.795	0.534	0.713	0.875	0.754	0.579	0.833	0.825	0.777	0.899	0.735
HARA	0.408		0.489	0.41	0.451	0.251	0.312	0.221	0.296	0.233	0.806	0.69	0.676	0.932	0.879	0.258	0.311	0.321	0.252	0.286
NCI-H358	0.278	0.293	0.281	0.359	0.335	0.15	0.194	0.12	0.197	0.19	0.475	0.415	0.366	0.55	0.492	0.176	0.167	0.209	0.172	0.186
NCI-H3122	0.346	0.38		0.377	0.319	0.714	0.941	0.836	0.78	0.83	0.997	0.906	1	1.01	1.01	0.853	0.806	0.739	0.465	1
Calu-6											1.04	1.09	1.2	1.06	1.06					
NCI-H2342	0.581	0.558	0.49	0.581	0.623	0.291	0.386	0.308	0.316	0.311						0.285	0.323	0.367	0.303	0.333
ChaGo-K-1	0.573	0.419	0.554	0.506	0.51	0.552	0.652	0.519	0.634	0.542						0.646	0.57	0.604	0.59	0.576
NCI-H441	0.903	0.845	0.643	0.832	0.916	0.431	0.704	0.458	0.582	0.51						0.66	0.606	0.71	0.699	0.621
NCI-H1299											0.971	0.981	0.944	1.01	0.958					
NCI-H1623	0.622	0.662	0.537	0.613	0.576	0.483	0.606	0.486	0.486	0.568						0.577	0.555	0.427	0.532	0.575
HCC-44	0.259	0.191	0.161	0.336	0.209						0.948	1.08	1.05	0.967	1.06					
SW 900	0.597	0.578	0.618	0.738	0.557	0.541	0.373	0.541	0.404	0.23						0.463	0.836	0.586	0.537	0.898
IA-LM												0.713	0.802	1.01	0.881					
A549	0.19	0.176	0.145	0.255	0.172						0.958	0.935	0.984	0.977	0.94					
LCLC-103H	0.306	0.314	0.255	0.356	0.331	0.34	0.552	0.398	0.486	0.378						0.47	0.487	0.457	0.512	0.49
